The record followed here is patent publication US9242993B2, “Morpholino substituted bicyclic pyrimidine urea or carbamate derivatives as mTOR inhibitors” (CELLZOME LIMITED, priority 2011, dated 2016).

SMILES strings stand for the structures.

The subject of series [1] is S6RP serine-240/244 phosphorylation. Kind of series: In vitro phospho-S6 cellular assay. In kind it is cell-based. To be noted: Homo sapiens; HEK293T/17 cells, 2 hours; read-out: pS6 inhibition value (IC50), activity level. The essentials: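 HEK293T/17 cells (40,000/well for pS6RP, 80,000/well for pAkt) in DMEM, 2% FCS treated 2 h at 37 °C with 8 compound concentrations (0.1% DMSO). Lysates assayed by MesoScale sandwich electrochemiluminescence for pS6RP Ser240/244 or pAkt Ser473. Curves fitted by sigmoidal variable-slope regression.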

Series [2] is described as follows: Bi-directional Caco-2 permeability assay. In kind it is in vitro ADME. To be noted: human, pH 7.4, Caco-2, 10 uM, pH7.4, read-out: Efflux ratio (ER), Papp B>A/Papp A>B. The protocol:
Bi-directional Caco-2 assays to assess the permeability of compounds in the gi tract, were performed as described below.
2×10^5 cells/well were seeded in plating medium consisting of DMEM+GlutaMAXI+1% NEAA+10% FBS (FetalClone II)+1% Pen/Strep. The medium was changed every 2-3 days.
50 uM Lucifer Yellow (Sigma) was added to the donor buffer in all wells to assess integrity of the cell layers by monitoring Lucifer Yellow permeation. As Lucifer Yellow (LY) cannot freely permeate lipophilic barriers, a high degree of LY transport indicates poor integrity of the cell layer. After a 1 hr incubation at 37° C. while shaking at an orbital shaker at 150 rpm, 70 ul aliquots were taken from both apical (A) and basal (B) chambers and added to 100 ul 50:50 acetonitrile:water solution containing analytical internal standard (0.5 uM carbamazepine) in a 96 well plate.
Concentrations of compound in the samples were measured by high performance liquid-chromatography/mass spectroscopy (LC-MS/MS).
The Efflux ratio, as an indication of active efflux from the apical cell surface of Caco-2 cells, was calculated using the ratio of Papp B>A/Papp A>B.
For orientation: Caco-2 monolayers are a common model of the intestinal barrier.

In another series the target is mTOR (Homo sapiens, UniProt P42345). The experiment in a line: biochemical.
In series [3] the target is DNA-dependent protein kinase (DNA-PK) (Homo sapiens, UniProt P78527). The experiment in a line: biochemical.
For series [4], the system named is IFNγ release in whole blood. Kind of series: In vitro human whole blood assay (IFNγ release). To be noted: αCD3/αCD28 and IL-2 stimulation, 18 hours, read-out: WB inhibition value (pIC50) (converted). In kind it is cell-based. The essentials: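 Na-heparin human whole blood, diluted 1.4-fold in RPMI, was preincubated 1 h at 37° C with 10 compound concentrations (0.2% DMSO), then stimulated with 1 μg/ml αCD3, 1 μg/ml αCD28 and 10 ng/ml IL-2 for 18 h. Plasma IFNγ quantified by MesoScale electrochemiluminescence immunoassay; values from variable-slope sigmoidal dose-response fit.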

The test system of series [5] is Akt serine-473 phosphorylation. Kind of series: In vitro phospho-Akt cellular assay. The format is cell-based. To be noted: Homo sapiens; HEK293T/17 cells, 2 hours; read-out: pAkt inhibition value (IC50), activity level. The source says: Activation of mTOR signaling results in phosphorylation of several downstream targets. In cells, mTOR exists in two different protein complexes. The mTOR Complex-1 (mTORC1) phosphorylates and activates S6 Kinase 1 (S6K1) and S6 Kinase 2 (S6K2) (also known as p70S6K) which then phosphorylate S6 Ribosomal Protein (S6RP) (also known as RPS6)3. S6RP is phosphorylated on serine 235, serine 236, serine 240 and serine 244 by both pS6K1 and pS6K2. The mTOR Complex-2 (mTORC2) phosphorylates AKT on serine 473 which activates the AKT signaling pathway.
The assay measures a test compound's inhibition of S6RP serine-240/244 phosphorylation and inhibition of Akt serine-473 phosphorylation in human embryonic kidney derived HEK293T/17 cells (ATCC CRL-11268).
The HEK293T/17 cell line is maintained in DMEM media (Invitrogen catalogue number 41965-039) supplemented with 10% FCS at 37° C. in a 5% CO2 humidified incubator.
Cells are seeded in 96-well plates at 40,000 cells/well (pS6RP S240/244 assay) or 80,000 cells/well (pAkt S473 assay) in 90 μl growth media (DMEM, 2% FCS). Plates are incubated for 1 hour in a humidified incubator to allow the cells to adhere. Cells are treated with 8 concentrations of test compounds or DMSO alone for controls (final DMSO concentration 0.1%) and incubated at 37° C. for 2 hours. Then 20 μl of 5× concentrated lysis buffer (750 mM NaCl, 100 mM Tris pH7.4, 5 mM ADTA, 5 mM EGTA, 5% Triton X-100) is added, plates are sealed and incubated for 15 minutes at 4° C. with gentle shaking. After cell lysis, 25 μl cell lysate is transferred to a MesoScale plate coated with an antibody to pS6RP Ser240/244 (MesoScale Discovery K150DGD-3) or an antibody to pAkt Ser 473 (MesoScale Discovery K151DGD-3). Plates have been blocked before by incubation with 150 μl MesoScale Discovery Blocking Solution-A for 1 hour at room temperature followed by washing with 150 μl 1× Tris wash buffer per well. After the transfer of the cell lysate to the MSD plate, the pS6RP (or pAkt) protein is captured on the coated antibody by incubation at room temperature for 1 hour with gentle shaking. After the capture step the plate is washed three times with 150 μl of 1× Tris wash buffer per well. Then 25 μl detection antibody conjugated with a Sulfo-Tag is added and incubated for 1 hour at room temperature with gentle shaking. Subsequently the antibody solution is removed and the plate is washed 3 times with 150 μl 1× Tris wash buffer per well and 150 μl Read buffer is added. The plates are analysed on a MSD 2400 Plate Reader (MesoScale Discovery). Data analysis is performed using nonlinear regression for a sigmoidal dose-response with a variable slope.

Chain of DNA-dependent protein kinase (DNA-PK) (P78527 whole entry): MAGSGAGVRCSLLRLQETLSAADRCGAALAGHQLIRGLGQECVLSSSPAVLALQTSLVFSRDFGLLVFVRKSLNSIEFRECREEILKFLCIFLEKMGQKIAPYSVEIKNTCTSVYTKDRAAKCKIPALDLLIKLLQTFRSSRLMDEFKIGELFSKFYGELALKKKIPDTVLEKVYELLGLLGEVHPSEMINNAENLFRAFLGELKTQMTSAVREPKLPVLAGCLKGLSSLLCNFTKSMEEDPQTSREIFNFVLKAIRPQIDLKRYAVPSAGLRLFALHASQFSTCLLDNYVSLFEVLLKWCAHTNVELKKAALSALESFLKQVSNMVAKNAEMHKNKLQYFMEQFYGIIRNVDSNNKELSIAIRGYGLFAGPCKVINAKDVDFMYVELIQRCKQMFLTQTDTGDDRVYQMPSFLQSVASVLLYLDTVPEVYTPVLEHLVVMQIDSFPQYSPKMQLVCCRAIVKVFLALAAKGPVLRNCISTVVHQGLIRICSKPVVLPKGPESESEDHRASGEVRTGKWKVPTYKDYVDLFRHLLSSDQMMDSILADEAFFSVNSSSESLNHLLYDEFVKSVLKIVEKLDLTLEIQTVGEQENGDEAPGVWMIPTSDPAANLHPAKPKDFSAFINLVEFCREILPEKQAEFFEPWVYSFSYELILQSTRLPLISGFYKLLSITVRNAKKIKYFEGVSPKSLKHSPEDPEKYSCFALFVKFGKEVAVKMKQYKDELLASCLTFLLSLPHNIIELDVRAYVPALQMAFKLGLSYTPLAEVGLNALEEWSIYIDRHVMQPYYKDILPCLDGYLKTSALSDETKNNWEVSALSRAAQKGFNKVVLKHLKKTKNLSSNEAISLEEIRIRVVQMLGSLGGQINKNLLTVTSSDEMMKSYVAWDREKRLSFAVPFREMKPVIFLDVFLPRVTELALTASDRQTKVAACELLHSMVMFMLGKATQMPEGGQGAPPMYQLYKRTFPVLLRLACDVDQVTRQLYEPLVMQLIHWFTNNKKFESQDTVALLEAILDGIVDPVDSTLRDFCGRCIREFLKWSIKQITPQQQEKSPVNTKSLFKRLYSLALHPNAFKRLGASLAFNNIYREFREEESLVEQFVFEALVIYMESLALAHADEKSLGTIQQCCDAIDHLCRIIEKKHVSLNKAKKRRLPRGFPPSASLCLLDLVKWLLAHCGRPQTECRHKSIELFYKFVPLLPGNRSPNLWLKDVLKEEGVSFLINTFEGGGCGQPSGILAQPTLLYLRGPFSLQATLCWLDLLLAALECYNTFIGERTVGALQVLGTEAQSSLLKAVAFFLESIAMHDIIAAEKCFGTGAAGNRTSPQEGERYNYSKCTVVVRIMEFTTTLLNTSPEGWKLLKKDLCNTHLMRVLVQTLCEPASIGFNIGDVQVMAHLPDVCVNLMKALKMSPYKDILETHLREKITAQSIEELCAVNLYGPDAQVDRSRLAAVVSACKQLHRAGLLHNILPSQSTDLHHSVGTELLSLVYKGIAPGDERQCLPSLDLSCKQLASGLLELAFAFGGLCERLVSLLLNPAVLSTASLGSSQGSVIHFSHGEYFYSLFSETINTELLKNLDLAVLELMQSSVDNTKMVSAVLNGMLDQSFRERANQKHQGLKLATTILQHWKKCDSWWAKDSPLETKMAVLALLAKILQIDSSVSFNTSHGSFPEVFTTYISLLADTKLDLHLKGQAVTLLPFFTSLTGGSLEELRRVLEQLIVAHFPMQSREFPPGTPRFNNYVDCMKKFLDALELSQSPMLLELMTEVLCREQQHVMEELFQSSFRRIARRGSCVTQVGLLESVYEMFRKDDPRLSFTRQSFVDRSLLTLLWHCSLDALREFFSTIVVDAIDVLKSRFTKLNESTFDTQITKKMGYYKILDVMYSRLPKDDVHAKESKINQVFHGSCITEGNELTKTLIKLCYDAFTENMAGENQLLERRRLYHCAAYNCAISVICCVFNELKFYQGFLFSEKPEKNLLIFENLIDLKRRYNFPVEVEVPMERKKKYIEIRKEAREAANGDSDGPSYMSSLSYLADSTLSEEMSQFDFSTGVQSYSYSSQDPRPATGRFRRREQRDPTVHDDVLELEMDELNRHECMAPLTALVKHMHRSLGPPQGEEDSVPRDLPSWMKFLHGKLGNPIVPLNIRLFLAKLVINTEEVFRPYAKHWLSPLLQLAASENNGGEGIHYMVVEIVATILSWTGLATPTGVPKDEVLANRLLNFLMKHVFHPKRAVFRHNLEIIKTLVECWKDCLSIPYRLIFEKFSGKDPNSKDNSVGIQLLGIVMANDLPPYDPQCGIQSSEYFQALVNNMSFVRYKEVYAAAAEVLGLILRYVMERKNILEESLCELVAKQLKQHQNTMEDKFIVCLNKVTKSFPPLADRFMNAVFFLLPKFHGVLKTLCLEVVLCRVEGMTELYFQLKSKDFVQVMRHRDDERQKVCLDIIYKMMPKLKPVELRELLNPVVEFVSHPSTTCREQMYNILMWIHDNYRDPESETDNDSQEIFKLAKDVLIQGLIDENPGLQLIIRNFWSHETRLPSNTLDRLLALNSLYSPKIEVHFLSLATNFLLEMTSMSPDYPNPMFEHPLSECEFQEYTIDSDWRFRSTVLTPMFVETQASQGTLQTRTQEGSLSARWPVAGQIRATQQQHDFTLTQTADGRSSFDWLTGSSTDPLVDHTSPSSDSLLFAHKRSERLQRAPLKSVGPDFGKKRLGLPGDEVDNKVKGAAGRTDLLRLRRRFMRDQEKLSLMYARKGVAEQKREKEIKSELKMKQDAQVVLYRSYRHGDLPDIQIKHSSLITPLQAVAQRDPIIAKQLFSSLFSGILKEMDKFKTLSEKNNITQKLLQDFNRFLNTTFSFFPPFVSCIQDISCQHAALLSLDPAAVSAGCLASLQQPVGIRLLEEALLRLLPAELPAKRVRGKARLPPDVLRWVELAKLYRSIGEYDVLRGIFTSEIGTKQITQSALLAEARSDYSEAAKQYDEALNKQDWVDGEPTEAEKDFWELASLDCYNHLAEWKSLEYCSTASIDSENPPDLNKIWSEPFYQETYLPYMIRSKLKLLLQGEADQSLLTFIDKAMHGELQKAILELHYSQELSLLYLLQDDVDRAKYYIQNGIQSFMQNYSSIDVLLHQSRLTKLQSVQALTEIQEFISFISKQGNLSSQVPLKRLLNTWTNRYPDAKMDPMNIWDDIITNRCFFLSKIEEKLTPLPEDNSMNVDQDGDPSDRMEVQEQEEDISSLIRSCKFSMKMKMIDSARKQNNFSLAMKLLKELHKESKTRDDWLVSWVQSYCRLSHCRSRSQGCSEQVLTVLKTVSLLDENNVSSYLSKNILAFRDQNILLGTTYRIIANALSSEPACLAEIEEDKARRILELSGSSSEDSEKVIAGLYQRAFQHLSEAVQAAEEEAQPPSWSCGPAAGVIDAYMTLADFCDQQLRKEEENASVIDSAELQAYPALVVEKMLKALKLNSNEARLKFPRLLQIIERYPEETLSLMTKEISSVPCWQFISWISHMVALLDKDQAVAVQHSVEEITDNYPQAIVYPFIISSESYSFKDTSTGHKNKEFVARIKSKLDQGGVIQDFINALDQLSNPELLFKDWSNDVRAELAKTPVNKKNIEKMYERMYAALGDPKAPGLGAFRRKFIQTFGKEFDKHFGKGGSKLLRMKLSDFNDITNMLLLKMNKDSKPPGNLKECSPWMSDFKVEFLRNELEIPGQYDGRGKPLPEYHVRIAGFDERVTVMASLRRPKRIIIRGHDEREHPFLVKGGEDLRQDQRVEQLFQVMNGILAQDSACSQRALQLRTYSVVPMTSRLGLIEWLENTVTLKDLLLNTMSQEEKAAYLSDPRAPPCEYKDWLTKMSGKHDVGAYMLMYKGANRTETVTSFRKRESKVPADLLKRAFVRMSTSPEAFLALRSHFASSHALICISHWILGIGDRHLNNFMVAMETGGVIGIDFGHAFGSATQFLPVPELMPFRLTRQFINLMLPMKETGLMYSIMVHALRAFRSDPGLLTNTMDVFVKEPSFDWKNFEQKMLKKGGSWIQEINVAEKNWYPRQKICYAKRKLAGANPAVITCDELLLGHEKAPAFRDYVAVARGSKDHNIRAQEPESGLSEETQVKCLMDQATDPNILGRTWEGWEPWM

Take `CCC1COCCN1c1nc(-c2ccc(NC(=O)NC3CC3)cc2)nc2c1CS(=O)(=O)C2` (stereo not shown) [Example 27, 1-cyclopropyl-3-(4-(4-(3-ethylmorpholino)-6,6-dioxido-5,7-dihydrothieno[3,4-d]pyrimidin-2-yl)phenyl)urea]: the IC50 in series [1] was below 100 nM; at mTOR, below 100 nM; in series [3], above 10 µM. In addition, the efflux ratio at 1 h, 10 uM in series [2] was 25.

Consider `CCNC(=O)Nc1ccc(-c2nc(N3CCOC[C@@H]3C)c3c(n2)C(C)(C)S(=O)(=O)C3)cc1` [Example 62, (S)-1-(4-(7,7-dimethyl-4-(3-methylmorpholino)-6,6-dioxido-5,7-dihydrothieno[3,4-d]pyrimidin-2-yl)phenyl)-3-ethylurea], for which the IC50 in series [1] was below 100 nM; in series [4], 200 nM; in series [3], above 10 µM. For the same compound, in series [2], the efflux ratio at 1 h, 10 uM turned out to be 22.

For `C[C@H]1COCCN1c1nc(-c2ccc(NC(=O)NC3CC3)cc2)nc2c1CSC2` [Example 1, (S)-1-cyclopropyl-3-(4-(4-(3-methylmorpholino)-5,7-dihydrothieno[3,4-d]pyrimidin-2-yl)phenyl)urea], the IC50 is below 100 nM in series [1], below 100 nM in series [5], below 100 nM against mTOR and above 10 µM in series [3].

`C[C@H]1COCCN1c1nc(-c2ccc(NC(=O)NC3CC3)cc2)nc2c1S(=O)(=O)CC2` [Example 5, (S)-1-cyclopropyl-3-(4-(4-(3-methylmorpholino)-5,5-dioxido-6,7-dihydrothieno[3,2-d]pyrimidin-2-yl)phenyl)urea]: the IC50 in series [1] was below 100 nM; in series [5], below 100 nM; against mTOR, below 100 nM; in series [3], above 10 µM.
